Data set [1] has as its system Co5841 primary human tumor (CRC). Description: Co5841 primary human xenograft CRC model. It counts as in vivo, nude mice. On the procedure:
(§1) The in vivo combination effects were evaluated in tumor xenograft models in nude mice with either established human tumor cell lines or patient-derived primary tumor models at the MTD and sub-MTD dosages.
FIG. 3: Dose-dependent tumor growth inhibition in Co5841 primary human xenograft CRC model. Co5841 primary human tumor was derived from a patient with CRC and was xenografted in nude mice. The tumor was propagated in vivo and tumor tissue from one in vivo passage was used for s.c. implantation in the inguinal region of male nude mice. Treatment was started when the tumors were approximately 0.1 cm^3 in size. Treatment was continued until progression of the tumors. Tumor diameters and body weight were monitored weekly. cA* was dosed at 14 mg/kg, Q2D×7 from day 6 to day 22 (group C, H and I), or 10 mg/kg, BID×1 weekly on day 6, 13, and 20. cB was dosed at either 12.5 mg/kg (group D, F and H), QD, […]
For orientation: Xenograft models place foreign cells or tissue in a host animal.

For data set [2], the system named is CRC SW620 Tumor Cell Line. Briefly: 72-hour cell proliferation assay (Cell Titer Glo), combination index. It is filed as cell-based. To be noted: Homo sapiens, SW-620; SW620, single agent, 90% inhibition not reached. Here is the method: The effects of combinations of the present invention were evaluated using combination index isobologram analysis for in vitro assessment. The efficacy parameters were the effects in a 72-hour cell proliferation assay or in a 48-hour caspase 3/7 activation assay. Briefly, cells were plated in 384-well plate with 25 μL medium. […] Experiments were conducted in triplicates. The mapping EC50/IC50 and EC90/IC90 values were calculated using Analyze5 computer program. The corresponding component concentrations of cA and BB (either cB, or Lapatinib, or paclitaxel (as component B)) at the […] were calculated and used for plotting isobolograms. […] IC50 and IC90 refers to the IC50 and IC90 obtained from the dose-response curve of either cA* or cB alone, or cA* plus cB with the ratio indicated in the table, where the top relative concentration is defined as 1.

Data set [3] deals with NCI-H1975, NCI-H1650, HCT116, Colo205, MDA-MB-468 cell lines. Briefly: caspase 3/7 activation assay, example (cell line not named). It counts as cell-based. On the procedure:
The effects of combinations of the present invention were evaluated using combination index isobologram analysis for in vitro assessment. The efficacy parameters were the effects in a 72-hour cell proliferation assay or in a 48-hour caspase 3/7 activation assay. Briefly, cells were plated in 384-well plate with 25 μL medium. […] Experiments were conducted in triplicates. The mapping EC50/IC50 and EC90/IC90 values were calculated using Analyze5 computer program. The corresponding component concentrations of cA and BB (either cB, or Lapatinib, or paclitaxel (as component B)) at the […] were calculated and used for plotting isobolograms. […] The dose-response curve of either cA* or cB alone, or cA* (as component A) plus cB (as component B) with the ratio indicated in the figure, where the top relative concentrations are defined as 1.

The subject of data set [4] is Lu7187 primary human tumor (NSCLC). The conditions noted are these: for T/C / animals with disease progression / sensitivity of the model: Lu7187; for animals with disease progression: respective monotherapy groups. Here is the method:
as §1
Lu7187 primary human tumor was derived from a patient with NSCLC and was xenografted in nude mice. The tumor was propagated in vivo and tumor tissue from one in vivo passage was used for s.c. implantation in the inguinal region of male nude mice. Treatment was started when the tumors were approximately 0.1 cm^3 in size. Treatment was continued until progression of the tumors. Tumor diameters and body weight were monitored t weekly. cA* was dosed at 14 mg/kg, Q2D×10 from day 7 to day 25 (group C, H and I), or 10 mg/kg, BID×1 weekly on day 7, 14, 21 and 28. cB was dosed at either 12.5 mg/kg (group D, F and H), QD, or 25 mg/kg (group E, G and I), QD from day 7 to day 35.

Data set [5] deals with Lu7343 primary human tumor (NSCLC). Briefly: patient-derived NSCLC xenograft model, cA plus paclitaxel (text: Lu7187; FIG. 5: Lu7343). It counts as in vivo, nude mice. Here is the method: as §1
The synergistic combination of cA* and palitaxel was also confirmed in a patient-derived NSCLC xenograft model—Lu7187.
FIG. 5: Dose-dependent tumor growth inhibition in Lu7343 primary human xenograft NSCLC model. Lu7343 primary human tumor was derived from a patient with NSCLC and was xenografted in nude mice. The tumor was propagated in vivo and tumor tissue from one in vivo passage was used for s.c. implantation in the inguinal region of male nude mice. Treatment was started when the tumors were approximately 0.1 cm^3 in size. Treatment was continued until progression of the tumors. Tumor diameters and body weight were monitored t weekly. cA* was dosed at 10 mg/kg, BIDx1 weekly on day 15, 22, and 29. paclitaxel was dosed at either 15 mg/kg, or 25 mg/kg, once a week on day 14, 21 and day 28.

These results are taken from patent US20130184270A1, “SUBSTITUTED 2,3-DIHYDROIMIDAZO[1,2-C]QUINAZOLINE-CONTAINING COMBINATIONS” (priority 2010, published 2013).

Molecules are shown by their SMILES. Where two headings read alike, the source gives them in different places.

In the case of `COc1c(OCCCN2CCOCC2)ccc2c1N=C(NC(=O)c1cnc(N)nc1)N1CCN=C21` [cA, 2-amino-N-[7-methoxy-8-(3-morpholin-4-ylpropoxy)-2,3-dihydroimidazo[1,2-c]quinazolin-5-yl]pyrimidine-5-carboxamide], the T/C in data set [1] (cA 10 mg/kg BID weekly (day 6, 13, 20)) came out at 0.49; in data set [1] (cA 14 mg/kg Q2D, day 6 to 22) it was 0.39; in data set [4] (cA 10 mg/kg BID weekly (day 7, 14, 21, 28)) it was 0.88. Moreover, the “animals with disease progression (DP)” value is given as 90% in data set [1] (cA 10 mg/kg BID weekly monotherapy) and 100% in data set [1] (cA 14 mg/kg Q2D monotherapy). Besides, the IC90 in data set [2] was over 5 µM. Further, the “induction of apoptosis (caspase 3/7), single agent” value in data set [3] (5 μM) was “Neither 10 μM of cB nor 5 μM of cA as single agents could induce apoptosis”. The “animals with disease progression” value in data set [4] stood at 100%. Moreover, in data set [4] (mouse, in vivo), the “body weight loss of weekly dosing compared with Q2D dosing” value is listed as “less body weight loss”.

In the case of `COc1cc(F)c(F)c(Nc2ccc(I)cc2F)c1NS(=O)(=O)C1(C[C@H](O)CO)CC1` [cB, (S)—N-(3,4-difluoro-2-(2-fluoro-4-iodophenylamino)-6-methoxyphenyl)-1-(2,3-dihydroxypropyl)cyclopropane-1-sulfonamide], the T/C in data set [1] (cB 12.5 mg/kg daily, day 6 to 23) is on record as 0.35; in data set [4] (cB 12.5 mg/kg daily, day 7 to 35), 0.46; in data set [4] (cB 25 mg/kg daily, day 7 to 35), 0.31. Further, the “animals with disease progression (DP)” value in data set [1] (cB 25 mg/kg monotherapy) was 70%. In addition, in data set [2], the concentration for an effect of 90% (IC90) is over 5 µM. In data set [3] (10 μM), the “induction of apoptosis (caspase 3/7), single agent” value is “Neither 10 μM of cB nor 5 μM of cA as single agents could induce apoptosis”. The “animals with disease progression” value in data set [4] stood at 100%.

With `C#Cc1cccc(Nc2ncnc3cc(OCCOC)c(OCCOC)cc23)c1` [erlotinib, reference compound], the “sensitivity of the model” value in data set [4] is given as “resistant”.

With `CC(=O)O[C@H]1C(=O)[C@@]2(C)[C@H]([C@H](OC(=O)c3ccccc3)[C@]3(O)C[C@H](OC(=O)[C@H](O)[C@@H](NC(=O)c4ccccc4)c4ccccc4)C(C)=C1C3(C)C)[C@]1(OC(C)=O)CO[C@@H]1C[C@@H]2O` [Paclitaxel], the “sensitivity of the model” value in data set [4] was “resistant”. Moreover, the single agent efficacy entry in data set [5] (paclitaxel 25 mg/kg (MTD)) was “very efficacious”. The “mice with disease progression after stopping the treatment” value in data set [5] (paclitaxel 25 mg/kg single agent) amounted to 60%.

`COc1cc([C@@H]2c3cc4c(cc3[C@@H](O[C@@H]3O[C@@H]5CO[C@@H](C)O[C@H]5[C@H](O)[C@H]3O)[C@H]3COC(=O)[C@H]23)OCO4)cc(OC)c1O` [etoposid, reference compound]: the “sensitivity of the model” value in data set [4] was “resistant”.

The term IC90 denotes the point of the concentration-response curve where the effect stands at 90%.
